How the values were obtained:
[1] = delivered intraperitoneally to treat a bacterial infection; cited from earlier work
Description: Peptoid 1 [H-(NLys-Nspe-Nspe)4-NH2], designated here as MXB-1, is a 12-mer with the trimer sequence motif NLys-Nspe-Nspe repeated four times (structures of the monomers are shown in Figure 1A). It is a helical peptoid with broad-spectrum activity against a variety of pathogens, including viruses as shown here; it is also active against fungi and bacterial biofilms.

[2] = system: HSV-1-GFP; assay: Fluorescence imaging of HSV-1-GFP infection; format: cell-based, Herpes Simplex Virus-1; conditions: virus treated at 20 µg/mL for 2 h; control-treated virus showed strong fluorescence
[3] = system: EpiOral cells; format: cell-based, human; conditions: 3D primary oral epithelial cultures (EpiOral), apical application for 3 h, any concentration up to 256 µg/mL, n = 3 wells per concentration
Method: To provide further evidence to support the development of these agents as potential therapeutics, we assayed cytotoxicity against cultured cells. To provide the optimal in vitro toxicity model, we used 3-dimensional primary cultures of oral epithelial cells (EpiOral, MatTek Life Sciences, Ashland, MA, USA), grown at an air-liquid interface. The cultures were tested in the presence of increasing concentrations of MXB-4, MXB-5 and MXB-9 for 3 h, applied to the apical surface. Viability was monitored using the MTT assay. […] Incubation with 50% ethanol led to 0% viability (not shown).
Figure 6 In vitro toxicity of peptoids. Peptoids were incubated on the apical surface of cultured EpiOral cells (n = 3 wells per concentration) for 3 h. Cell viability was quantified by MTT assay and are shown as mean percent survival +/− SD. Results shown are representative of two independent replicate experiments.
Normal human bronchial epithelial cells, obtained from MatTek (EpiAirway) were grown at an air-liquid interface at 37 °C. […] Cell viability was quantified using the CyQUANT MTT Cell Viability Assay (ThermoFisher, Waltham, MA, USA), following the manufacturer’s instructions Absorbance was read at 540 nm and percent survival was calculated relative to untreated cultures. […]

[4] = Small Angle X-ray Scattering, self-assembly in aqueous PBS buffer; format: physicochemical; conditions: unpublished data, manuscript in preparation
Description: Comparing the structures of the ten peptoids on our new library with regard to antiviral activity, halogenation seems to be beneficial as every active compound (except MXB-5) includes at least two Nspe(p-Br) submonomers. […] This difference in activity potentially can be explained by differences in net molecular hydrophobicity upon halogen substitution as previously reported by Molchanova et al.. In this study they found an increasing antimicrobial activity correlating with increasing hydrophobicity, until a threshold was reached where the activity dropped. […] Further studies are needed to make definitive conclusions about these effects. We believe that a certain type and degree and stability of peptoid self-assemblies in aqueous media can be an important determinant of both activity, and selectivity. If assemblies remain intact near zwitterionic mammalian cells, but disassemble near anionic pathogenic membranes, they can be selective towards affecting pathogens while causing little to no harm to the host.

[5] = system: Pseudomonas aeruginosa biofilms; conditions: cited from earlier work
[6] = system: mammalian cells; conditions: cited from earlier work
Description: (§1) This effort led to the development of MXB-5 [H-Ntridec-NLys-Nspe-Nspe-NLys-NH2; see Figure 1 for structure), a peptoid with a 13-carbon N-terminal alkyl modification, that shares some structural similarities with MXB-1 [31]. […] In one in vivo experiment which has been presented orally online, mice were infected intratracheally with bioluminescent Pseudomonas aeruginosa, and were ...

[7] = system: Pseudomonas aeruginosa; conditions: cited from earlier work
Description: as §1

[8] = system: HSV-1; assay: HSV-1 inactivation: virus pre-incubated with peptoid, infection of OKF6/TERT-1 cells, HSV-1 DNA by QPCR; format: cell-based, Herpes Simplex Virus-1; conditions: for Activity against HSV-1 (screening, HSV-1 DNA by QPCR relative to β-actin): virus incubated with peptoid at 20 µg/mL for 2 h at 37 °C, then infection of OKF6/TERT-1 cells for 24 h
[9] = system: HSV-1; assay: Electron microscopy (negative staining and cryo-EM) of peptoid-treated HSV-1; set-up: species or system Herpes Simplex Virus-1; conditions: HSV-1 treated 2 h at 37 °C; untreated controls 21% unenveloped capsids
Method: Figure 3 Transmission electron microscope imaging of peptoid-treated HSV-1 vs. controls and comparative analysis of results. Virus was treated for 2 h at 37 °C followed by preparation for EM imaging as described in Materials and Methods. (A) Negative stained EM. (B) Cryo-EM. Visible in the control samples are the viral envelope and intact capsid (both panels). In the samples treated with the peptoids we observe both disrupted envelopes (top panels) and naked capsids (bottom panels).
HSV-1 (1 × 10^8 pfu/mL) was incubated with peptoids or control medium for 2 h. at 37 °C. After incubation, the virus was fixed by addition of 2 volumes 4% glutaraldehyde/PBS, and fixed at 4 °C for 24 h. Virus was applied to grids (ultrathin carbon with lacey support film, Ted Pella, Inc.) for 1 min, followed by staining in 1% phosphotungstic acid for 1 min. Excess liquid was blotted and grids were allowed to air dry. Images were collected using a Thermo Scientific™ Talos™ F200X at 200 kV accelerating voltage with 50 μm objective aperture inserted to enhance contrast. Images were captured using a 4k × 4k CMOS camera (Thermo Scientific, Waltham, MA, USA, Ceta 16M™).
After incubation of HSV-1 virus with peptoids for 2 h. at 37 °C, samples were vitrified using Leica EM-GP2® plunger (Leica Microsystems) as previously described on carbon holey film (R2 × 1 Quantifoil®; Micro Tools GmbH, Jena, Germany) grids. […]

Row | Substance | Tolerability when delivered intraperitoneally [1] | GFP fluorescence in cells at 24 h post-infection (viral replication) [2] | Cytotoxicity (viability by MTT assay) [3] | Self-assembled structure in solution (SAXS) [4] | Activity against Pseudomonas aeruginosa biofilms [5] | Cytotoxicity to mammalian cells relative to MXB-1 [6] | Tolerability in the lungs of the mice ([7]; intratracheal infection model) | Bacterial loads compared to untreated animals ([7]; mice, intratracheal infection with bioluminescent Pseudomonas aeruginosa) | Activity against HSV-1, dose-dependence ([8]; 20 µg/mL for 2 h (5 and 20 µg/mL tested), Figure 2B) | Incubation time at which inactivation of HSV-1 is seen (time course) ([8]; time course, Figure 2C) [min] | Activity against HSV-1 (screening, HSV-1 DNA by QPCR relative to β-actin) [8] | Cryo-EM quantification of whole virus, disrupted envelopes and naked capsids [9]
1 | H-(NLys-Nspe-Nspe)4-NH2 [MXB-1] | reasonably well tolerated |  |  |  |  |  |  |  |  |  |  | 
2 | H-Ntridec-NLys-Nspe-Nspe-NLys-NH2 [MXB-5] |  | very weak fluorescence | no observable cytotoxicity | stable core-shell ellipsoidal micellar structures | highly active | significantly less cytotoxic | well tolerated | significant reduction in bacterial loads | strong activity | ≤ 30 | strong activity | large increase in both unenveloped capsids
3 | LL-37: human cathelicidin AMP, natural human host defense peptide (LLGDFFRKSKEKIGKEFKRIVQRIKDFLRNLVPRTES; Antibacterial peptide LL-37; UniProt P49913 134-170, looked up) [reference compound] |  |  |  |  |  |  |  |  |  |  | direct inactivation of HSV-1 | 
